Results: paper PMC7265341, “Quantifying CDK inhibitor selectivity in live cells” (Nature Communications, 2020)
Read-outs that look alike come from different tables or passages of the source.

Legend:
CDK1/Cyclin E1 = CDK1/Cyclin E1 (Homo sapiens, UniProt P06493); experiment: NanoBRET live-cell target engagement, CDK1-NanoLuc/Cyclin E1 in HEK-293; assay type: binding; conditions: CDK1/E1; for IC50: read-out: IC50
CDK2/Cyclin E1 = CDK2/Cyclin E1 (Homo sapiens, UniProt P24941); experiment: NanoBRET live-cell target engagement, CDK2-NanoLuc/Cyclin E1 in HEK-293; assay type: binding; conditions: CDK2/E1; for IC50: read-out: IC50
CDK3/Cyclin E1 = CDK3/Cyclin E1 (Homo sapiens, UniProt Q00526); experiment: NanoBRET live-cell target engagement, CDK3-NanoLuc/Cyclin E1 in HEK-293; assay type: binding; conditions: CDK3/E1; for IC50: read-out: IC50
CDK3/Cyclin E1, sequence (Q00526 whole entry): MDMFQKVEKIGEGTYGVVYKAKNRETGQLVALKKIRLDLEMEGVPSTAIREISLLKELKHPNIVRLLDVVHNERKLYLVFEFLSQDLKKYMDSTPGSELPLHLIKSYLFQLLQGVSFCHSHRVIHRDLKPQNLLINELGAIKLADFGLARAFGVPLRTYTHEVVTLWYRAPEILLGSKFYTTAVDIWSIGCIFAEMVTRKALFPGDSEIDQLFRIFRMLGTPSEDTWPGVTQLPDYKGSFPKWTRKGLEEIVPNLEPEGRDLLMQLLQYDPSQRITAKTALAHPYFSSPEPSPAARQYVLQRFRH
CDK3/Cyclin E1, sequence (P24864 whole entry partner): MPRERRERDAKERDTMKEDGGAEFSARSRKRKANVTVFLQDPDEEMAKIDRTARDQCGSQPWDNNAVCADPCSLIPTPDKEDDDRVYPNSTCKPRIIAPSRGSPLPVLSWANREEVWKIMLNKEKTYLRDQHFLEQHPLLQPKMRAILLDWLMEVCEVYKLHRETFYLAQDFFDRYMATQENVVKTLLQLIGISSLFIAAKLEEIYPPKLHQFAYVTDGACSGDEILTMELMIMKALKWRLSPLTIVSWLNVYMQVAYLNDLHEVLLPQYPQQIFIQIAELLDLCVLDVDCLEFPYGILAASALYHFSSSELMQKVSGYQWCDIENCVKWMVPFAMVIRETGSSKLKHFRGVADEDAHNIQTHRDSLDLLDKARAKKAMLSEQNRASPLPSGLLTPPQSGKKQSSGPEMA

CDK4/Cyclin D1 = CDK4/Cyclin D1 (Homo sapiens, UniProt P11802); experiment: NanoBRET live-cell target engagement, NanoLuc-CDK4/Cyclin D1 in HEK-293; assay type: binding; conditions: CDK4/D1
CDK5/CDK5R1 = CDK5/CDK5R1 (Homo sapiens, UniProt Q00535); experiment: NanoBRET live-cell target engagement, CDK5-NanoLuc/CDK5R1 in HEK-293; assay type: binding; conditions: CDK5/CDK5R1; for IC50: read-out: IC50
CDK6/Cyclin D1 = CDK6/Cyclin D1 (Homo sapiens, UniProt Q00534); experiment: NanoBRET live-cell target engagement, NanoLuc-CDK6/Cyclin D1 in HEK-293; assay type: binding; conditions: CDK6/D1
CDK6/Cyclin D1, sequence (Q00534 whole entry): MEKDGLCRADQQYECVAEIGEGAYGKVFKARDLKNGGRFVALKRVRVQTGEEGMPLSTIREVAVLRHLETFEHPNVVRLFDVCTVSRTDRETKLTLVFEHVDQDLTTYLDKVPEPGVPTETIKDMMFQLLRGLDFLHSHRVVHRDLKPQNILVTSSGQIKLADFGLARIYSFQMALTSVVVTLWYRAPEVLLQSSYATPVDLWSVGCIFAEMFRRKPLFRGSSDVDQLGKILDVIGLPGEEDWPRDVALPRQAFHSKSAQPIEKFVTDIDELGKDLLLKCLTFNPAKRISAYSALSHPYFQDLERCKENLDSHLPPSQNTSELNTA
CDK6/Cyclin D1, sequence (P24385 whole entry partner): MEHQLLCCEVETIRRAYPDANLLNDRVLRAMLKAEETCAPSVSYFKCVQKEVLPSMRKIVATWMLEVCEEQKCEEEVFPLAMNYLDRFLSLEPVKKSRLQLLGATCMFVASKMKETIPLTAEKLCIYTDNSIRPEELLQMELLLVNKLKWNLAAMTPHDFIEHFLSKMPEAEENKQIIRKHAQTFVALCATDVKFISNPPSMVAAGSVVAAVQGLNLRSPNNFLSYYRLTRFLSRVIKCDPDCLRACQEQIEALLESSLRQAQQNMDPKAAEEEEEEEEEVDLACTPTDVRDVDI

CDK8/Cyclin C = CDK8/Cyclin C (Homo sapiens, UniProt P49336); experiment: NanoBRET live-cell target engagement, NanoLuc-CDK8/Cyclin C in HEK-293; assay type: binding; conditions: CDK8/C; for IC50: read-out: IC50
CDK8/Cyclin C, sequence (P49336 whole entry): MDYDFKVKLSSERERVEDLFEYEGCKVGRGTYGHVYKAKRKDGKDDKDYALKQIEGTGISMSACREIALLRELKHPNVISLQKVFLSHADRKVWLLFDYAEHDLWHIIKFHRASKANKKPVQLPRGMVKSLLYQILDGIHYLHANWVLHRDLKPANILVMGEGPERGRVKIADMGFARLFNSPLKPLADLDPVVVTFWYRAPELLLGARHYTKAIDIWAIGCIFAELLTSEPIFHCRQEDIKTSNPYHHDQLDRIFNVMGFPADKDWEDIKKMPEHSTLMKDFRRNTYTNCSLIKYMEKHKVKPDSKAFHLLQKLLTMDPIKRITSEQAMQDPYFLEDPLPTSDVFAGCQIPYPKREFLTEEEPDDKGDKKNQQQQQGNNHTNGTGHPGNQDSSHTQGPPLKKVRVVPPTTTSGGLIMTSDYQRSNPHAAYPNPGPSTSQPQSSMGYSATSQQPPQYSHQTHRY
CDK8/Cyclin C, sequence (P24863 whole entry partner): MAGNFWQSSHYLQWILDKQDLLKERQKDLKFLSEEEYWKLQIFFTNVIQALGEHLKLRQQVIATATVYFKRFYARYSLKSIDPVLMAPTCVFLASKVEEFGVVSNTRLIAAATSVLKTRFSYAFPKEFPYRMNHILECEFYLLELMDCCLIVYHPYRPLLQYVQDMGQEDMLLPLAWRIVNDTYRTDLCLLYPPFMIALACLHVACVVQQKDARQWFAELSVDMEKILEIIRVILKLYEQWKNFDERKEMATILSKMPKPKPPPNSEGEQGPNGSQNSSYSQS

CDK9/Cyclin K = CDK9/Cyclin K (Homo sapiens, UniProt P50750); experiment: NanoBRET live-cell target engagement, NanoLuc-CDK9/Cyclin K in HEK-293; assay type: binding; conditions: CDK9/K
CDK9/Cyclin K, sequence (P50750 whole entry): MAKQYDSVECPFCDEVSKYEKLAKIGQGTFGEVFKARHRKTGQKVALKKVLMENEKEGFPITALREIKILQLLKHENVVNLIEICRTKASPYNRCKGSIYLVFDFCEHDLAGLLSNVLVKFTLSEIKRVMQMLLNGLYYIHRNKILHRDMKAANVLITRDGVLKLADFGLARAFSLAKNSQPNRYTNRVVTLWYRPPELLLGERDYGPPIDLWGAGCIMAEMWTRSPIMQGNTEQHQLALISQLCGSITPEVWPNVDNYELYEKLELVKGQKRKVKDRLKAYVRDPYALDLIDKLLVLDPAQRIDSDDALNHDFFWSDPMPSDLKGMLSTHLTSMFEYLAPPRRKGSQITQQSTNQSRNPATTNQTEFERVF
CDK9/Cyclin K, sequence (O75909 whole entry partner): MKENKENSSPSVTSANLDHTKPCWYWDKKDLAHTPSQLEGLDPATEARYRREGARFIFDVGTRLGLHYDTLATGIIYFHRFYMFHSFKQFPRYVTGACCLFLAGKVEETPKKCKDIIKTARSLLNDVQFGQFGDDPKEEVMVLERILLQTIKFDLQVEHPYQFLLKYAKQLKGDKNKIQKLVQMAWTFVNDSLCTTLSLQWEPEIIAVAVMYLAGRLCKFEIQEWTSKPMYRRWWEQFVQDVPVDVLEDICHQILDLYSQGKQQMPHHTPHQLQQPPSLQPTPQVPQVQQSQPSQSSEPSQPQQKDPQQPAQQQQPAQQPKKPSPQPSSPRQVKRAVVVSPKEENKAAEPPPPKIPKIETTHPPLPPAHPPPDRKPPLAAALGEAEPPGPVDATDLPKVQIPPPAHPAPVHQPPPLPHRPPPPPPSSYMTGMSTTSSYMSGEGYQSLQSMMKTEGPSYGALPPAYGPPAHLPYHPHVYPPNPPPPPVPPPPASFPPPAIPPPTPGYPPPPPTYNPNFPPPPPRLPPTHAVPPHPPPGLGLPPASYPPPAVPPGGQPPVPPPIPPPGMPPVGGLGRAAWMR

CDK11A/Cyclin L2 = molecular target: T1, CDK11A/Cyclin L2 (Homo sapiens, UniProt Q9UQ88); experiment: NanoBRET live-cell target engagement, CDK11A-NanoLuc/Cyclin L2 in HEK-293; assay type: binding; conditions: CDK11a/L2
T1 sequence (Q9UQ88 1-783): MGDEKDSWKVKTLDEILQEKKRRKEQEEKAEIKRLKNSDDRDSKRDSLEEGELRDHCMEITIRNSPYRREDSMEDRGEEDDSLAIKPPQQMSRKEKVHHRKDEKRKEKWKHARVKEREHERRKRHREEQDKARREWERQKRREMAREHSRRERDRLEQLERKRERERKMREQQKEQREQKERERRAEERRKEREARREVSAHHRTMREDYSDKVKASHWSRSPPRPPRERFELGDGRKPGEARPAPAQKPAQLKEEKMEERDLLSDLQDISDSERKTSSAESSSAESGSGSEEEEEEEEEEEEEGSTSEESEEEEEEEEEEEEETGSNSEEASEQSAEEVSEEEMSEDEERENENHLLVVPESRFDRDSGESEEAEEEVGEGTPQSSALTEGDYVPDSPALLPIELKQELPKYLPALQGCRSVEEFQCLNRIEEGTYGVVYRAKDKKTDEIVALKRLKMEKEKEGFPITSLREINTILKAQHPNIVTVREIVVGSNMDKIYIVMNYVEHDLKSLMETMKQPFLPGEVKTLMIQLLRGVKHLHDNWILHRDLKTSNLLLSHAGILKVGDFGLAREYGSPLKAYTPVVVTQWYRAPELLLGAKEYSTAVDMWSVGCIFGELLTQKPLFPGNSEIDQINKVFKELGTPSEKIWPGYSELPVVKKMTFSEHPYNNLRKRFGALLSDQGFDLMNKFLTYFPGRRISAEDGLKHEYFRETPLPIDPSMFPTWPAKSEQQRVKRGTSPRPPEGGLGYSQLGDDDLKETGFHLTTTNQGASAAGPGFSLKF

CDK11B/Cyclin L2 = CDK11B/Cyclin L2 (Homo sapiens, UniProt P21127); experiment: NanoBRET live-cell target engagement, CDK11B-NanoLuc/Cyclin L2 in HEK-293; assay type: binding; conditions: CDK11b/L2
CDK11B/Cyclin L2, sequence (P21127 1-782 isoform P21127-2): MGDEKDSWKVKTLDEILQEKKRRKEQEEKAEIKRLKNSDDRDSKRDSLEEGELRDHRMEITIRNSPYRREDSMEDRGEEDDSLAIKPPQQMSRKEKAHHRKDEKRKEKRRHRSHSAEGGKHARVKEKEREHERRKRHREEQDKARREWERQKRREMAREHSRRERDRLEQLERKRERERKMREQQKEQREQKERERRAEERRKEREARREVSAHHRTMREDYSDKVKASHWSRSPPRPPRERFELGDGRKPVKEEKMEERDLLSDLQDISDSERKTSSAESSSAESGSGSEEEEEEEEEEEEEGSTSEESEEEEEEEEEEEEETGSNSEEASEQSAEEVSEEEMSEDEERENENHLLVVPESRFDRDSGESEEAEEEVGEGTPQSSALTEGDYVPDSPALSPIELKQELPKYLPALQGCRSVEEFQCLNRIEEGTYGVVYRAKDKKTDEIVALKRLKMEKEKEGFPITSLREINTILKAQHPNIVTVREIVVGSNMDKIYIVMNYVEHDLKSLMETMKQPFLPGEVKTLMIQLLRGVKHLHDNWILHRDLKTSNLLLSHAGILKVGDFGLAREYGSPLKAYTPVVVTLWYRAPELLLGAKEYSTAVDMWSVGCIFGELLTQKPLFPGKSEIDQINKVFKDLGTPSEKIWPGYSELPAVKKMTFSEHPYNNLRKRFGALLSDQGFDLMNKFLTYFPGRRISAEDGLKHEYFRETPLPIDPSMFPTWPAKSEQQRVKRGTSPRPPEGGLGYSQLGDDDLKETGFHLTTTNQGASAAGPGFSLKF

CDK12/Cyclin K = CDK12/Cyclin K (Homo sapiens, UniProt Q9NYV4); experiment: NanoBRET live-cell target engagement, CDK12-NanoLuc/Cyclin K in HEK-293; assay type: binding; conditions: CDK12/K
CDK13/Cyclin K = CDK13/Cyclin K (Homo sapiens, UniProt Q14004); experiment: NanoBRET live-cell target engagement, CDK13-NanoLuc/Cyclin K in HEK-293; assay type: binding; conditions: CDK13/K
CDK15/Cyclin Y = CDK15/Cyclin Y (Homo sapiens, UniProt Q96Q40); experiment: NanoBRET live-cell target engagement, NanoLuc-CDK15/Cyclin Y in HEK-293; assay type: binding; conditions: CDK15/Y
CDK16/Cyclin Y = CDK16/Cyclin Y (Homo sapiens, UniProt Q00536); experiment: NanoBRET live-cell target engagement, CDK16-NanoLuc/Cyclin Y in HEK-293; assay type: binding; conditions: CDK16/Y
CDK17/Cyclin Y = CDK17/Cyclin Y (Homo sapiens, UniProt Q00537); experiment: NanoBRET live-cell target engagement, CDK17-NanoLuc/Cyclin Y in HEK-293; assay type: binding; conditions: CDK17/Y
CDK18/Cyclin Y = CDK18/Cyclin Y (Homo sapiens, UniProt Q07002); experiment: NanoBRET live-cell target engagement, CDK18-NanoLuc/Cyclin Y in HEK-293; assay type: binding; conditions: CDK18/Y
CDK20/Cyclin H = CDK20/Cyclin H (Homo sapiens, UniProt Q8IZL9); experiment: NanoBRET live-cell target engagement, NanoLuc-CDK20/Cyclin H in HEK-293; assay type: binding; conditions: CDK20/H
CDK19/Cyclin C = CDK19/Cyclin C (Homo sapiens, UniProt Q9BWU1); experiment: NanoBRET live-cell target engagement, NanoLuc-CDK19/Cyclin C in HEK-293; conditions: CDK19/C
CDK19/Cyclin C, sequence (Q9BWU1 whole entry): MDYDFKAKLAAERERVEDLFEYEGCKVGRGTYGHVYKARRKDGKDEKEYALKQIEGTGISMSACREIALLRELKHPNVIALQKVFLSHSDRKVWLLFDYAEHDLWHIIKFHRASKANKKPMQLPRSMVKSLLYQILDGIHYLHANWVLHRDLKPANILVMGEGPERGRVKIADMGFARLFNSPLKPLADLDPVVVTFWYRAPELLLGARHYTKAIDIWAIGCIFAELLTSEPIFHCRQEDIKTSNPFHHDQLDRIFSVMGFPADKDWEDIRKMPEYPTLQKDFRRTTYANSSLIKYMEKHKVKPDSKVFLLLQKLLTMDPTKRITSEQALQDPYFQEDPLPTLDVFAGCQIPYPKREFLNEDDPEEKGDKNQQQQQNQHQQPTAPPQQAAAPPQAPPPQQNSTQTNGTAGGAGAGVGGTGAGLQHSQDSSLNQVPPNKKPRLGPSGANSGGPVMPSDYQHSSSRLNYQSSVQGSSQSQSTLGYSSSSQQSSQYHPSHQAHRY
CDK19/Cyclin C, sequence (P24863 whole entry partner): as the sequence (P24863 whole entry partner) above

CDK10/Cyclin L2 = CDK10/Cyclin L2 (Homo sapiens, UniProt Q15131); experiment: NanoBRET live-cell target engagement, CDK10-NanoLuc/Cyclin L2 in HEK-293; conditions: CDK10/L2

CDK1/Cyclin E1, sequence (P06493 whole entry): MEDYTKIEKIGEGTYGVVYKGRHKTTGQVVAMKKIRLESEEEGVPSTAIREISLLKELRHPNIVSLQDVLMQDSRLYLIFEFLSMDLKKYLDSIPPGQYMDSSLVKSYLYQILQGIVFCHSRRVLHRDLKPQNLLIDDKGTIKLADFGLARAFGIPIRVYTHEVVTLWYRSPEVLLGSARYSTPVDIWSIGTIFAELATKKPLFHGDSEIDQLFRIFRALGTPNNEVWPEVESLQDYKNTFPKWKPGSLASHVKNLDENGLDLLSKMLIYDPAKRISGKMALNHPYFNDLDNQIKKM
CDK1/Cyclin E1, sequence (P24864 whole entry partner): as the sequence (P24864 whole entry partner) above

With `CCn1cnc2c(Nc3cccc(Cl)c3)nc(N[C@@H]3CCCC[C@@H]3N)nc21` [CGP74514A] the “Inhibition at 10µM (%)” value (CDK1/Cyclin E1; average) was 78.9%, the IC50 (CDK1/Cyclin E1; average (± SEM where n=3)) was 130 nM and the “Inhibition at 10µM (%)” value (CDK1/Cyclin E1; experiment 1) was 77.7%. The IC50 (CDK1/Cyclin E1; experiment 1) was 100 nM, the “Inhibition at 10µM (%)” value (CDK1/Cyclin E1; experiment 2) was 80.1% and the IC50 (CDK1/Cyclin E1; experiment 2) was 163 nM. The “Inhibition at 10µM (%)” value (CDK2/Cyclin E1; average) was 94.2%, the IC50 (CDK2/Cyclin E1; average (± SEM where n=3)) was 62 nM and the “Inhibition at 10µM (%)” value (CDK2/Cyclin E1; experiment 1) was 93.3%. The IC50 (CDK2/Cyclin E1; experiment 1) was 63 nM, the “Inhibition at 10µM (%)” value (CDK2/Cyclin E1; experiment 2) was 95.2% and the IC50 (CDK2/Cyclin E1; experiment 2) was 60 nM. The “Inhibition at 10µM (%)” value (CDK3/Cyclin E1; average) was 92.7%, the IC50 (CDK3/Cyclin E1; average (± SEM where n=3)) was 75 nM and the “Inhibition at 10µM (%)” value (CDK3/Cyclin E1; experiment 1) was 92.6%. For the same molecule, the IC50 (CDK3/Cyclin E1; experiment 1) was 39 nM, the “Inhibition at 10µM (%)” value (CDK3/Cyclin E1; experiment 2) was 92.8% and the IC50 (CDK3/Cyclin E1; experiment 2) was 110 nM. The “Inhibition at 10µM (%)” value (CDK4/Cyclin D1; average) was 72.2%, the “Inhibition at 10µM (%)” value (CDK4/Cyclin D1; experiment 1) was 63.2% and the “Inhibition at 10µM (%)” value (CDK4/Cyclin D1; experiment 2) was 81.2%. The “Inhibition at 10µM (%)” value (CDK5/CDK5R1; average) was 93.3%, the IC50 (CDK5/CDK5R1; average (± SEM where n=3)) was 100 nM and the “Inhibition at 10µM (%)” value (CDK5/CDK5R1; experiment 1) was 90.4%. The IC50 (CDK5/CDK5R1; experiment 1) was 74 nM, the “Inhibition at 10µM (%)” value (CDK5/CDK5R1; experiment 2) was 96.2% and the IC50 (CDK5/CDK5R1; experiment 2) was 130 nM. The “Inhibition at 10µM (%)” value (CDK6/Cyclin D1; average) was 58.7%, the “Inhibition at 10µM (%)” value (CDK6/Cyclin D1; experiment 1) was 51.0% and the “Inhibition at 10µM (%)” value (CDK6/Cyclin D1; experiment 2) was 66.5%. For the same molecule, the “Inhibition at 10µM (%)” value (CDK8/Cyclin C; average) was 3.2%, the IC50 (CDK8/Cyclin C; average (± SEM where n=3)) was 260 nM and the “Inhibition at 10µM (%)” value (CDK8/Cyclin C; experiment 1) was 5.8%. The IC50 (CDK8/Cyclin C; experiment 1) was 290 nM, the “Inhibition at 10µM (%)” value (CDK8/Cyclin C; experiment 2) was 0.659% and the IC50 (CDK8/Cyclin C; experiment 2) was 230 nM. For the same molecule, the “Inhibition at 10µM (%)” value (CDK9/Cyclin K; average) was 71.1%, the “Inhibition at 10µM (%)” value (CDK9/Cyclin K; experiment 1) was 68.0% and the “Inhibition at 10µM (%)” value (CDK9/Cyclin K; experiment 2) was 74.2%. The “Inhibition at 10µM (%)” value (CDK11A/Cyclin L2; average) was 29.9%, the “Inhibition at 10µM (%)” value (CDK11A/Cyclin L2; experiment 1) was 16.5% and the “Inhibition at 10µM (%)” value (CDK11A/Cyclin L2; experiment 2) was 43.3%. For the same molecule, the “Inhibition at 10µM (%)” value (CDK11B/Cyclin L2; average) was 21.5%, the “Inhibition at 10µM (%)” value (CDK11B/Cyclin L2; experiment 1) was 20.4% and the “Inhibition at 10µM (%)” value (CDK11B/Cyclin L2; experiment 2) was 22.7%. The “Inhibition at 10µM (%)” value (CDK12/Cyclin K; average) was 36.8%, the “Inhibition at 10µM (%)” value (CDK12/Cyclin K; experiment 1) was 42.2% and the “Inhibition at 10µM (%)” value (CDK12/Cyclin K; experiment 2) was 31.4%. For the same molecule, the “Inhibition at 10µM (%)” value (CDK13/Cyclin K; average) was 35.2%, the “Inhibition at 10µM (%)” value (CDK13/Cyclin K; experiment 1) was 36.4% and the “Inhibition at 10µM (%)” value (CDK13/Cyclin K; experiment 2) was 33.9%. For the same molecule, the “Inhibition at 10µM (%)” value (CDK15/Cyclin Y; average) was 85.2%, the “Inhibition at 10µM (%)” value (CDK15/Cyclin Y; experiment 1) was 84.1% and the “Inhibition at 10µM (%)” value (CDK15/Cyclin Y; experiment 2) was 86.4%. The “Inhibition at 10µM (%)” value (CDK16/Cyclin Y; experiment 1) was 76.4%, the “Inhibition at 10µM (%)” value (CDK16/Cyclin Y; experiment 2) was 76.7% and the “Inhibition at 10µM (%)” value (CDK17/Cyclin Y; average) was 80.2%. For the same molecule, the “Inhibition at 10µM (%)” value (CDK17/Cyclin Y; experiment 1) was 79.4%, the “Inhibition at 10µM (%)” value (CDK17/Cyclin Y; experiment 2) was 81.0% and the “Inhibition at 10µM (%)” value (CDK18/Cyclin Y; average) was 86.9%. For the same molecule, the “Inhibition at 10µM (%)” value (CDK18/Cyclin Y; experiment 1) was 81.1%, the “Inhibition at 10µM (%)” value (CDK18/Cyclin Y; experiment 2) was 92.6% and the “Inhibition at 10µM (%)” value (CDK20/Cyclin H; experiment 1) was 40.4%. For the same molecule, the “Inhibition at 10µM (%)” value (CDK20/Cyclin H; experiment 2) was 47.3%, the “Inhibition at 10µM (%)” value (CDK19/Cyclin C; average) was 9.3% and the “Inhibition at 10µM (%)” value (CDK19/Cyclin C; experiment 1) was 26.1%. For the same molecule, the “Inhibition at 10µM (%)” value (CDK19/Cyclin C; experiment 2) was -7.5%, the “Inhibition at 10µM (%)” value (CDK10/Cyclin L2; average) was 40.2% and the “Inhibition at 10µM (%)” value (CDK10/Cyclin L2; experiment 1) was 37.4%. The “Inhibition at 10µM (%)” value (CDK10/Cyclin L2; experiment 2) was 42.9%.
